Patent publication US20080214599A1, “Use of Par-1/Par-4 Inhibitors for Treating or Preventing Vascular Diseases” (priority 2005, published 2008)

Assays:
Assay type in all cases: in vivo, human
PAR-1/PAR-4 (WEDE15) = assay: Flow cytometry, WEDE15 (PAR-1/PAR-4) in patients undergoing coronary stenting
Method: (§1) The study sought to compare the antiplatelet properties of prasugrel and clopidogrel in the frame of a Phase 2 randomized trial. Specifically, nine patients undergoing coronary stenting were randomized to one of three arms of prasugrel (40-60-60 mg loading, and 7.5-10-15 mg maintenance daily dose), or clopidogrel (300 mg/75 mg). Aspirin and GP IIb/IIIa inhibitors were allowed.

CD31 (PECAM-1) = assay: Flow cytometry, platelet surface expression of CD31 (PECAM-1) in patients undergoing coronary stenting
Method: as §1

CD165 (GP37) = assay: Flow cytometry, platelet CD165 (GP37) in patients undergoing coronary stenting; parameters: CD165 (GP37), flow cytometry: unit not given here
Method: as §1

CD151+CD14 = assay: Flow cytometry, CD151+CD14 in patients undergoing coronary stenting; parameters: unit not given here
Method: as §1

CD40 ligand = assay: Flow cytometry, platelet CD40 ligand in patients undergoing coronary stenting; parameters: CD40 ligand, flow cytometry: unit not given here
Method: as §1

CD42 (GP-Ib) = assay: Flow cytometry, platelet surface expression of CD42 (GP-Ib) in patients undergoing coronary stenting; parameters: CD42 (GP-Ib), flow cytometry: unit not given here
Method: as §1

PAR-1/PAR-4 (SPAN12) = assay: Flow cytometry, SPAN12 (PAR-1/PAR-4) in patients undergoing coronary stenting
Method: as §1

Thrombospondin = assay: Flow cytometry, platelet thrombospondin in patients undergoing coronary stenting; parameters: Thrombospondin, flow cytometry: unit not given here
Method: as §1

CD62p (P-selectin) = assay: Flow cytometry, platelet surface expression of CD62p (P-selectin) in patients undergoing coronary stenting; parameters: CD62p (P-selectin), flow cytometry: unit not given here
Method: as §1

platelets = assay: Ultegra Analyzer platelet function in stented patients; conditions: independent of the dosing regimen; vs patients treated with clopidogrel
Method: (§2) The study sought to compare the antiplatelet properties of prasugrel and clopidogrel in the frame of a Phase 2 randomized trial. Specifically, nine patients undergoing coronary stenting were randomized to one of three arms of prasugrel (40-60-60 mg loading, and 7.5-10-15 mg maintenance daily dose), or clopidogrel (300 mg/75 mg). Aspirin and GP IIb/IIIa inhibitors were allowed. […] Applicants believe the above results are significant and establish a correlation between use of CS-747 (prasugrel) and inhibition of the activity or activation of PAR-1 and/or PAR-4 receptors. […] The correlations or trends shown in table 1 are independent of aspirin or Gb-11b inhibitor use by some patients at baseline. Confounding effects by aspirin or GB-IIb/IIIA use at baseline should be absent at 30 days.

[1] = system: GPIIb/IIIa activity with PAC-1 antibody; assay: GPIIb/IIIa activity with PAC-1 antibody in stented patients; conditions: independent of the dosing regimen; vs patients treated with clopidogrel
Method: as §2

GPIIb/IIIa antigen = assay: Surface expression of GPIIb/IIIa antigen in stented patients; conditions: independent of the dosing regimen; vs patients treated with clopidogrel
Method: as §2

[2] = system: platelets (collagen-induced aggregation); assay: Collagen-induced platelet aggregation in stented patients; conditions: independent of the dosing regimen; vs patients treated with clopidogrel
Method: as §2

[3] = system: platelets (ADP-induced aggregation); assay: ADP-induced platelet aggregation in stented patients; conditions: independent of the dosing regimen; vs patients treated with clopidogrel
Method: as §2

[4] = 30 days after stent implantation
[5] = Baseline, patients undergoing coronary stenting
[6] = independent of the dosing regimen, vs patients treated with clopidogrel

## COC(=O)[C@H](c1ccccc1Cl)N1CCc2sccc2C1 [clopidogrel, reference compound]
PAR-1/PAR-4 (WEDE15); 4 hr after stent implantation
  WEDE15 (PAR-1/PAR-4), flow cytometry: 20.9 ± 9.3
PAR-1/PAR-4 (WEDE15); 24 hr after stent implantation
  WEDE15 (PAR-1/PAR-4), flow cytometry: 25.7 ± 9.6
PAR-1/PAR-4 (WEDE15); [4]
  WEDE15 (PAR-1/PAR-4), flow cytometry: 16.5 ± 3.2
PAR-1/PAR-4 (WEDE15); [5]
  WEDE15 (PAR-1/PAR-4), flow cytometry: 30.2 ± 10.9
CD31 (PECAM-1); 4 hr after stent implantation
  CD31 (PECAM-1), flow cytometry: 41.6 ± 17.3
CD31 (PECAM-1); 24 hr after stent implantation
  CD31 (PECAM-1), flow cytometry: 38.0 ± 18.9
CD31 (PECAM-1); [4]
  CD31 (PECAM-1), flow cytometry: 58.6 ± 8.4
CD31 (PECAM-1); [5]
  CD31 (PECAM-1), flow cytometry: 62.9 ± 12.2
CD165 (GP37); 4 hr after stent implantation
  CD165 (GP37), flow cytometry: 17.8 ± 5.8
CD165 (GP37); 24 hr after stent implantation
  CD165 (GP37), flow cytometry: 18.3 ± 4.2
CD165 (GP37); [4]
  CD165 (GP37), flow cytometry: 19.7 ± 3.0
CD165 (GP37); [5]
  CD165 (GP37), flow cytometry: 23.9 ± 5.2
CD151+CD14; 4 hr after stent implantation
  CD151+CD14, flow cytometry: 62.6 ± 14.4
CD151+CD14; 24 hr after stent implantation
  CD151+CD14, flow cytometry: 69.5 ± 22.4
CD151+CD14; [4]
  CD151+CD14, flow cytometry: 66.0 ± 9.5
CD151+CD14; [5]
  CD151+CD14, flow cytometry: 67.1 ± 14.5
CD40 ligand; 4 hr after stent implantation
  CD40 ligand, flow cytometry: 4.1 ± 1.3
CD40 ligand; 24 hr after stent implantation
  CD40 ligand, flow cytometry: 4.2 ± 1.3
CD40 ligand; [4]
  CD40 ligand, flow cytometry: 6.5 ± 1.6
CD40 ligand; [5]
  CD40 ligand, flow cytometry: 5.5 ± 1.3
CD42 (GP-Ib); 4 hr after stent implantation
  CD42 (GP-Ib), flow cytometry: 134.2 ± 37.3
CD42 (GP-Ib); 24 hr after stent implantation
  CD42 (GP-Ib), flow cytometry: 129.8 ± 37.6
CD42 (GP-Ib); [4]
  CD42 (GP-Ib), flow cytometry: 168.0 ± 48.0
CD42 (GP-Ib); [5]
  CD42 (GP-Ib), flow cytometry: 135.2 ± 35.1
PAR-1/PAR-4 (SPAN12); 4 hr after stent implantation
  SPAN12 (PAR-1/PAR-4), flow cytometry: 16.2 ± 5.0
PAR-1/PAR-4 (SPAN12); 24 hr after stent implantation
  SPAN12 (PAR-1/PAR-4), flow cytometry: 17.1 ± 5.3
PAR-1/PAR-4 (SPAN12); [4]
  SPAN12 (PAR-1/PAR-4), flow cytometry: 6.2 ± 0.9
PAR-1/PAR-4 (SPAN12); [5]
  SPAN12 (PAR-1/PAR-4), flow cytometry: 18.0 ± 4.8
Thrombospondin; 4 hr after stent implantation
  Thrombospondin, flow cytometry: 6.7 ± 2.0
Thrombospondin; 24 hr after stent implantation
  Thrombospondin, flow cytometry: 7.8 ± 2.8
Thrombospondin; [4]
  Thrombospondin, flow cytometry: 8.1 ± 1.3
Thrombospondin; [5]
  Thrombospondin, flow cytometry: 7.1 ± 2.0
CD62p (P-selectin); 4 hr after stent implantation
  CD62p (P-selectin), flow cytometry: 10.0 ± 3.5
CD62p (P-selectin); 24 hr after stent implantation
  CD62p (P-selectin), flow cytometry: 9.8 ± 3.6
CD62p (P-selectin); [4]
  CD62p (P-selectin), flow cytometry: 9.6 ± 1.4
CD62p (P-selectin); [5]
  CD62p (P-selectin), flow cytometry: 10.4 ± 3.4

## CC(=O)Oc1cc2c(s1)CCN(C(C(=O)C1CC1)c1ccccc1F)C2 (stereo not drawn) [prasugrel, 2-acetoxy-5-(α-cyclopropylcarbonyl-2-fluorobenzyl)-4,5,6,7-tetrahydrothieno[3,2-c]pyridine]
PAR-1/PAR-4 (WEDE15); 4 hr after stent implantation
  WEDE15 (PAR-1/PAR-4), flow cytometry: 17.0 ± 6.2
PAR-1/PAR-4 (WEDE15); 24 hr after stent implantation
  WEDE15 (PAR-1/PAR-4), flow cytometry: 19.6 ± 8.4
PAR-1/PAR-4 (WEDE15); [4]
  WEDE15 (PAR-1/PAR-4), flow cytometry: 15.3 ± 5.9
PAR-1/PAR-4 (WEDE15); [5]
  WEDE15 (PAR-1/PAR-4), flow cytometry: 37.0 ± 9.8
platelets
  Platelet inhibition by Ultegra Analyzer, compared with clopidogrel: more potent platelet inhibition
CD31 (PECAM-1); 4 hr after stent implantation
  CD31 (PECAM-1), flow cytometry: 52.5 ± 29.3
CD31 (PECAM-1); 24 hr after stent implantation
  CD31 (PECAM-1), flow cytometry: 52.8 ± 28.7
CD31 (PECAM-1); [4]
  CD31 (PECAM-1), flow cytometry: 24.6 ± 24.4
CD31 (PECAM-1); [5]
  CD31 (PECAM-1), flow cytometry: 69.9 ± 19.3
CD31 (PECAM-1); [6]
  Platelet inhibition by surface expression of PECAM-1, compared with clopidogrel: more potent platelet inhibition
CD165 (GP37); 4 hr after stent implantation
  CD165 (GP37), flow cytometry: 17.8 ± 5.6
CD165 (GP37); 24 hr after stent implantation
  CD165 (GP37), flow cytometry: 15.8 ± 5.7
CD165 (GP37); [4]
  CD165 (GP37), flow cytometry: 12.2 ± 2.8
CD165 (GP37); [5]
  CD165 (GP37), flow cytometry: 24.7 ± 2.8
CD165 (GP37); [6]
  Platelet inhibition by surface expression of GP37, compared with clopidogrel: more potent platelet inhibition
[1]
  Platelet inhibition by GPIIb/IIIa activity with PAC-1 antibody, compared with clopidogrel: more potent platelet inhibition
CD151+CD14; 4 hr after stent implantation
  CD151+CD14, flow cytometry: 60.1 ± 18.9
CD151+CD14; 24 hr after stent implantation
  CD151+CD14, flow cytometry: 62.7 ± 29.2
CD151+CD14; [4]
  CD151+CD14, flow cytometry: 61.8 ± 23.0
CD151+CD14; [5]
  CD151+CD14, flow cytometry: 73.0 ± 11.1
CD40 ligand; 4 hr after stent implantation
  CD40 ligand, flow cytometry: 4.8 ± 1.4
CD40 ligand; 24 hr after stent implantation
  CD40 ligand, flow cytometry: 4.6 ± 1.1
CD40 ligand; [4]
  CD40 ligand, flow cytometry: 3.7 ± 1.3
CD40 ligand; [5]
  CD40 ligand, flow cytometry: 6.9 ± 0.8
CD40 ligand; [6]
  Platelet inhibition by surface expression of CD40-ligand, compared with clopidogrel: more potent platelet inhibition
GPIIb/IIIa antigen
  Platelet inhibition by surface expression of GPIIb/IIIa antigen, compared with clopidogrel: more potent platelet inhibition
[2]
  Platelet inhibition by collagen-induced aggregation, compared with clopidogrel: more potent platelet inhibition
[3]
  Platelet inhibition by ADP-induced aggregation, compared with clopidogrel: more potent platelet inhibition
CD42 (GP-Ib); 4 hr after stent implantation
  CD42 (GP-Ib), flow cytometry: 138.7 ± 38.3
CD42 (GP-Ib); 24 hr after stent implantation
  CD42 (GP-Ib), flow cytometry: 154.0 ± 39.6
CD42 (GP-Ib); [4]
  CD42 (GP-Ib), flow cytometry: 110.0 ± 47.7
CD42 (GP-Ib); [5]
  CD42 (GP-Ib), flow cytometry: 145.9 ± 35.5
CD42 (GP-Ib); [6]
  Platelet inhibition by surface expression of GPIb, compared with clopidogrel: more potent platelet inhibition
PAR-1/PAR-4 (SPAN12); 4 hr after stent implantation
  SPAN12 (PAR-1/PAR-4), flow cytometry: 13.3 ± 2.5
PAR-1/PAR-4 (SPAN12); 24 hr after stent implantation
  SPAN12 (PAR-1/PAR-4), flow cytometry: 12.0 ± 2.7
PAR-1/PAR-4 (SPAN12); [4]
  SPAN12 (PAR-1/PAR-4), flow cytometry: 6.6 ± 1.7
PAR-1/PAR-4 (SPAN12); [5]
  SPAN12 (PAR-1/PAR-4), flow cytometry: 19.5 ± 5.4
Thrombospondin; 4 hr after stent implantation
  Thrombospondin, flow cytometry: 6.4 ± 1.1
Thrombospondin; 24 hr after stent implantation
  Thrombospondin, flow cytometry: 6.7 ± 1.7
Thrombospondin; [4]
  Thrombospondin, flow cytometry: 4.0 ± 0.7
Thrombospondin; [5]
  Thrombospondin, flow cytometry: 7.3 ± 2.2
Thrombospondin; [6]
  Platelet inhibition by surface expression of thrombospondin receptor, compared with clopidogrel: more potent platelet inhibition
CD62p (P-selectin); 4 hr after stent implantation
  CD62p (P-selectin), flow cytometry: 8.9 ± 3.3
CD62p (P-selectin); 24 hr after stent implantation
  CD62p (P-selectin), flow cytometry: 7.9 ± 1.4
CD62p (P-selectin); [4]
  CD62p (P-selectin), flow cytometry: 5.2 ± 2.3
CD62p (P-selectin); [5]
  CD62p (P-selectin), flow cytometry: 10.8 ± 4.1
CD62p (P-selectin); [6]
  Platelet inhibition by surface expression of P-selectin, compared with clopidogrel: more potent platelet inhibition
